Test results reported in patent publication US20260224595A1, “COMPOUNDS FOR THE TREATMENT OF MYOTONIC DYSTROPHY” (ETH ZURICH, priority 2022, published 2026).

Tests used:
Assay type in all cases: cell-based, human
[1] = test system: miR-122; test: TaqMan stem-loop RT-PCR of miR-122 (not regulated by Lin28); settings: DM1 patient myotubes; 72 h; TaqMan-qPCR
Procedure: (§1) Primary myoblasts derived from patient samples were subjected to differentiation for 5 days. Small molecule Compound I or Compound II (as obtained in Example 1) was solubilized in 5% DMSO and diluted with water as a stock, or only 5% DMSO with diluted water taken as control. Myoblasts were treated with appropriate concentration for 72 h before harvest for RNA extraction.
(§2) TaqMan stem-loop assays (Applied Biosystem by ThermoFisher Scientific) were carried out to quantify mature miRNA expression levels. 20 ng of total RNA from each sample was transcribed using RT primers (from ThermoFisher Scientific) and the Taqman miRNA reverse transcription kit (Applied Biosystems by ThermoFisher Scientific). qRT-PCR was performed using Tm primer (from ThermoFisher Scientific) and the GoTaq probe qPCR Master Mix (Promega) in triplicates in a 384-well plate on a Roche Light Cycler 480, following manufacturer's protocols. For normalization, U6 snRNA was used as a housekeeping gene.

[2] = test system: miR-122 targets; test: RNA-Seq of miR-122 targetome (negative control)
Procedure: As described in Example 3, total RNA was isolated from DM-patient and healthy cells, and cDNA libraries were prepared for three conditions (healthy volunteer (HV); DM; DM+Compound II) for DM1 and DM2 backgrounds. The expression levels of predicted targetomes of miRNAs let-7, miR-1, miR-9, miR-29, miR-30, miR-107 and miR-181 were then compared, using miR-122 as well as more than 2,000 transcripts that are not predicted targets of any miRNA as negative controls. Three pair-wise comparisons were performed to measure: i) how a targetome varies between healthy and diseased cells (HV versus DM), ii) how a targetome responds to treatment with the inventive compounds (DM versus DM+Compound II) and, iii) how a Compound II-treated DM-targetome compares to that of a healthy signature. For each pair-wise comparison, the third dataset was used as a reference and the fold changes were calculated for each target transcript (e.g. DM1 vs. DM1+Compound II, with fold changes calculated relative to HV).
Primary myoblasts or myotubes derived from DM1 or DM2 patient samples and non-DM healthy control individuals were cultured for 90% confluence and then treated with 120 μM Compound II for 72 h. […] Quality and size distribution of the generated libraries was validated using an Agilent 2100 bioanalyzer with high-sensitivity RNA chip (Agilent) and RNA yield was measured using the Qubit […] HS Assay Kit followed by pooling of the libraries in batches of 12 and sequencing of […] pooled library on an Nextseq 500/High Output Flow Cell Cartridge using a paired end, 2×76 reads, single index protocol.
RNA-Seq reads were mapped to the human genome (build GRCh38) using STAR (Dobin et al., (2013). STAR: ultrafast universal RNA-seq aligner. Bioinformatics 29, 15-21) with gene annotations from gencode (www.gencodegenes.org; version 40). Reads mapping uniquely to exons were counted for each gene using htseq-count (Anders et al., (2015). HTSeq—a Python framework to work with high-throughput sequencing data. Bioinformatics 31, 166-169) with the parameter -s reverse and -m intersection_strict. […]

[3] = test system: mature miRNAs let7i, miR-1, miR-9, miR-29a, miR-30a, miR-30c, miR-107, miR-133, miR-181a, miR-181b, let-7g; test: TaqMan stem-loop RT-PCR of mature Lin28-miRNAs in DM1 myotubes
Procedure: as §1, §2

## CC(=O)N(C)c1cccc(-c2ccc3nnc(C)n3n2)c1 [Compound II]
[1]
  miR-122 level: unaffected
[2]; DM1 and DM2 myotubes, 120 μM, 72 h
  change of miR-122 targets: not significantly changed
[2]; DM1 myoblasts, 120 μM, 72 h
  change of miR-122 targets: not significantly changed
[2]; DM2 myoblasts, compared to targetomes of other miRNAs
  change of miR-122 targets: weaker change
[3]; DM1 patient myotubes, 72 h, TaqMan-qPCR
  nine other miRNAs (miR-1; miR-9; miR-29a; miR-30; miR-30c; miR-107; miR-133; miR-181a; miR-181b) levels: similarly increased
[3]; DM1 patient myotubes, FIG. 4A
  increases in endogenous miRNA levels: 1.5-3.0 fold
[3]; DM1 patient myotubes, compared with the other miRNAs assayed
  miR-30 level increase: maximum effect
[3]; six DM1 patient myotubes, 72 h, 30, 60, 180 μM, fold change vs untreated cells
  mature miRNAs let7i, miR-1, miR-9, miR-29a, miR-30a, miR-30c, miR-107, miR-133, miR-181a, miR-181b, let-7g levels relative to U6 snRNA: concentration-dependent de-repression
